From a melting point compilation (Tetko et al.; mined from patent text by program, amines drawn as free bases though some values may be those of a salt)

| Structure (SMILES) | melting point |
| --- | --- |
| CCC(=O)N1Cc2c(-c3noc(C4CC4)n3)ncn2-c2ccccc21 | 175 to 176 °C |
| Nc1sc(-c2cccnc2)c(CN(C2CCCCC2)C2CCCCC2)c1C(=O)c1ccc(Cl)cc1 | 168 to 170 °C |
| Cc1ccc(OCc2ccc(OCc3nc(-c4ccccc4)oc3C)cc2)c(CC(=O)O)c1 | 115 to 116 °C |
| O=C(Nc1ccc(F)cc1)c1ccccc1C(c1ccc(O)cc1)c1ccc(O)cc1 | 122 to 124 °C |
| COc1cc2c(cc1OC)C(c1ccccc1N)=NN=C(C)C2 | 172 to 174 °C |
| CCSc1nn2c(-c3ccccc3)nnc2c2ccccc12 | 190 to 191 °C |
| CCOC(Cc1ccc(OCCN2CCOc3ccccc32)cc1)C(=O)NCc1ccccc1 (configuration not stated) | 94 to 96 °C |
| COc1ccc2c(c1)c(-c1cc3nccnc3[nH]1)cn2Cc1ccccc1 | 240 to 244 °C |
| Clc1ccc(OC2CC3CCC(C2)N3Cc2nccs2)cc1Cl (configuration not stated) | 123 to 124 °C |
| CCOC(=O)c1cn2c(n1)CN=C(c1ccccn1)c1cc(Br)ccc1-2 | 227 to 230 °C |
| Oc1ccc2nc(-c3ccc(O)c(F)c3)cc(-c3ccc(C(F)(F)F)cc3)c2c1 | 299 to 300 °C |
| CC(C)CCCc1c(-c2ccc(S(C)(=O)=O)cc2)cnn(-c2ccc(F)c(F)c2)c1=O | 111 to 113 °C |
| [N-]=[N+]=NS(=O)(=O)c1ccccc1[N+](=O)[O-] | 73 to 74 °C |
| CC(=O)Nc1ccc(OC(C)(C)c2nc3ccccc3s2)cc1 | 149 to 150 °C |
| Fc1ccc(C2CC3CCC(C3)C23CO3)cc1 (configuration not stated) | 178 to 180 °C |
| CNC(=O)CNC(=O)c1ccc(C)c(-n2c(C)cc(OCc3ccccc3CNC(=O)Nc3cc(C(C)(C)C)nn3-c3ccc(O)c(Cl)c3)c(Cl)c2=O)c1 | 209 to 211 °C |
| Nc1nc(N)c2nc(N)n(COC(CO)CO)c2n1 | 206 to 208 °C |
| CC1CCN(C(=O)Oc2ccc(Oc3ccccc3)cc2F)CC1 | 43 to 46 °C |
| CC(C)(N)CNc1ncc2ncnc(Nc3ccc(F)c(Cl)c3)c2n1 | 205 to 207 °C |
| Cc1csc(NC(=S)Nc2cc(Cl)ccc2C)n1 | 188 °C |
| COc1cc(Nc2nccc(-c3sc(NCCc4ccccc4)nc3C)n2)cc(OC)c1OC | 184 to 186 °C |
| CC(=O)C1=C(C)c2ccccc2C1(C)C | 104 to 105 °C |
| O=C(O)C(Oc1ccc(Cl)c(C(F)(F)F)c1)c1ccc(Cl)cc1 (configuration not stated) | 132 °C |

| Structure (SMILES) | melting point |
| --- | --- |
| O=C(CC1CCOCC1)N[C@H]1CC[C@H](CCN2CCC(c3cccc4c3CCO4)CC2)CC1 | 191 °C |
| CC(C)(C)OC(=O)NC1CCN(Cc2ccccc2)CC1 | 112 to 120 °C |
| CS(=O)(=O)c1ccc(-c2cc(CCCO)nn2CC2CCCCC2)cc1 | 94 to 95 °C |
| CC(C)S(=O)(=O)c1ccc2c(c1)nc(CC(C)(C)C)n2CCN1CCOCC1 | 151 °C |
| CN(CC(=O)O)C(=O)CN1CCCC1=O | 178 °C |
| O=[N+]([O-])c1cc(C2=NOC(c3cc(C(F)(F)F)cc(C(F)(F)F)c3)(C(F)(F)F)C2)ccc1-n1cnnn1 (configuration not stated) | 173 to 175 °C |
| CCN(C)C(=O)NC(=O)Nc1ccccc1 | 157 to 159 °C |
| Cc1cc2ncnn2nc1OCC(C)(C)CCCS(N)(=O)=O | 171 to 172 °C |
| CCCCCCC(C(=O)O)n1ccc2cc(-c3ccccc3C(=O)O)ccc21 (configuration not stated) | 115 to 120 °C |
| CC(=O)O[C@@H]1[C@H](OC(C)=O)[C@@H](C)O[C@H]1n1c(Cl)nc2c(Br)c(Cl)c(Cl)cc21 | 138 to 141 °C |
| Cc1c(NC(=O)c2ccc(-c3ccccc3)cc2F)ccc2cc(CN3CCCC3)cnc12 | 166 to 168 °C |
| N#CCc1cccn1Cc1ccccc1 | 62 to 63 °C |
| C=CCC(CC)(C(=O)c1ccc(OCCO)cc1)N(C)C (configuration not stated) | 80 to 82 °C |
| Cc1ccnc2c1nc(-c1cccnc1N)n2-c1ccc(CN)cc1 | 210 to 212 °C |
| O=C(O)c1ccc(COCc2csc3nc(C(=O)NCc4ccc(F)c(F)c4)[nH]c(=O)c23)cc1 | 249 to 251 °C |
| CS(=O)(=O)c1ccc(-c2cnn(-c3cccc(F)c3)c(=O)c2-c2ccc(F)cc2)cc1 | 245 to 247 °C |
| Cc1cc(C(F)(F)F)nn1CC(=O)N1CCC(c2nc(NC(=O)Nc3ccccc3)cs2)CC1 | 193 °C |
| CC1(C)CCOC1=C(n1ccnc1)S(=O)(=O)c1ccc(Cl)cc1 | 192 to 194 °C |
| CC(C(=O)O)c1cccs1 (configuration not stated) | 75 to 75.5 °C |
| OCc1ccc(-c2coc(-c3cn([C@H]4CN5CCC4CC5)nn3)c2)cc1 | 202 °C |
| CCOC(=O)/C(C#N)=C(\N)C(CC)CC | 87 °C |
| Cc1cc(-c2ccc(Cl)cc2)n2ncc(C#N)c2n1 | 285 to 287 °C |
| COc1cc(CC2SC(N3CCCC3)=NC2=O)cc(-c2ccc(O)c(C3(C)CCCCC3)c2)c1 (configuration not stated) | 88 to 91 °C |

| Structure (SMILES) | melting point |
| --- | --- |
| O=C(NN=Cc1c(O)cccc1Cl)c1ccc(Cl)cc1 | 273 to 277 °C |
| COC(=O)Cc1ccc(N)c(O)c1 | 112 to 114 °C |
| COc1ccc(Sc2ncc(Cl)cn2)cc1 | 75 °C |
| COc1cc(Nc2c(C#N)cnc3cc(-c4ccc(CCl)cc4)ccc23)c(Cl)cc1Cl | 236 to 239 °C |
| CCCCCCCCCCCCCCc1ccc(OCC(O)CO)c(CC)c1 (configuration not stated) | 55 to 56 °C |
| Cc1nnc(-c2ccc3occ(-c4ccccc4Cl)c3c2)o1 | 83 to 84 °C |
| Cc1c(CCC#N)c2c(c(C(C)C)c1OCc1ccccc1)CC(C)(C)O2 | 158 to 159 °C |
| O=C(O)c1ccc(OC(F)(F)F)c([N+](=O)[O-])c1 | 137 to 139 °C |
| Cc1cc(C)c2nc(NCC3COC(C)(C)O3)n(Cc3nc(C)ccc3O)c2c1 (configuration not stated) | 225 °C |
| Cc1ccc2c(c1)N(CC(=O)c1ccccc1C)C(=O)C(NC(=O)Nc1cccc(C(=O)O)c1)CN2C(=O)OCc1ccccc1 (configuration not stated) | 144 to 147 °C |
| Nc1ccc(S(=O)C(F)(F)C(F)F)cc1F (configuration not stated) | 67 to 69 °C |
| CCc1cnc(N2CCN(C(=O)c3ccccc3NC3(c4ccccc4)NC=Nc4ccccc43)CC2)nc1 (configuration not stated) | > 250 °C |
| COC(=O)c1cn(S(=O)(=O)c2ccc(C)cc2)c(C)c1C | 108 to 114 °C |
| O=C(O)Cc1c(C(=O)O)c2cc(Oc3cccc(OC(F)(F)F)c3)ccc2n1-c1ccc(OC(F)(F)F)cc1 | 188 to 193 °C |
| CCCCCCCCCCCCCCCCCCOCCC(=O)COCc1ccccc1 | 33 to 34 °C |
| CO/C=C(/C(=O)OC)c1cccnc1Oc1cccc(C=O)c1 | 84 to 86 °C |
| CSC1NC(=O)N(c2ccc(C)cc2)C(=O)N1N=C(C)C (configuration not stated) | 170 to 173 °C |
| NC(=NCC(F)(F)F)Nc1ccnc(OCCCO)n1 | 118 to 120 °C |
| COc1cc(N)c(Cl)cc1C(=O)NCC1CCN(CCCCCC(=O)c2ccc(C)cc2C)CC1 | 106 to 110 °C |
| O=C(CCl)n1ccc2cc(F)ccc21 | 236 to 237 °C |
| Cc1nnc(-c2ccc3occ(-c4cccc(C(F)(F)F)c4)c3c2)o1 | 126 to 127 °C |
| CC=NN(C(=O)c1ccc(Cl)cc1)c1ccc(OC)c(F)c1 | 97 to 99 °C |
| CC(C)(C)OC(=O)NCc1ccccc1Br | 51 to 53 °C |

Now from value to molecule:

| melting point | Structure (SMILES) |
| --- | --- |
| 92 to 94 °C | O=C1CC[C@@H](CI)N1Cc1ccccc1 |
| 198 to 200 °C | CCOC(=O)c1cn(C)c2cc(OC)ccc2c1=O |
| 144 to 146 °C | COc1cccc2c1CCC(COC(=O)N(c1ccccc1)c1ccccc1)C2 (configuration not stated) |
| 117 to 118 °C | O=[N+]([O-])c1cccc(C=NC2CCOc3ccccc32)c1 (configuration not stated) |
| 200 to 204 °C | c1cn(Cc2ccc3c(c2)-c2[nH]nc(-c4ccsc4)c2C3)cn1 |
| 148 to 150 °C | COc1ccc(Cl)c(Oc2c(NS(=O)(=O)c3ccc4c(c3)OCO4)ncnc2OCCO)c1 |
| 171 to 174 °C | O=C(O)Cc1cc(Br)c(S(=O)(=O)c2ccc(O)c(C3CCCC3)c2)c(Br)c1 |
| 136 to 138 °C | CC(O)c1coc2cc(NS(C)(=O)=O)c(Oc3ccccc3)cc2c1=O (configuration not stated) |
| 110 to 111 °C | COc1cc2[nH]ccc2cc1Br |
| 177 to 179 °C | CCOC(=O)c1c(-c2ccccc2)n(C)c(-c2ccccc2)cc1=O |
| 62 to 64 °C | CN(C)C=Nc1c(Cl)cc(N=Cc2cccc(C(F)(F)F)c2)cc1Cl |
| 272 °C | Nc1scc2c1C(=O)c1cc(Cl)c(Cl)cc1-2 |
| 356 to 358 °C | COc1cc2[nH]c(=O)[nH]c(=O)c2cc1Cl |
| 152 to 154 °C | CS(=O)(=O)c1ccc(N2CCc3ccccc32)c([N+](=O)[O-])c1 |
| 142 to 144 °C | Cc1cc2ncc(-c3ccsc3)nc2cc1C |
| 161 to 163 °C | COC(=O)c1nc(-c2cc([N+](=O)[O-])c(Cl)cc2F)cc(N)c1Cl |
| 145 to 146 °C | C[C@@H]1O[C@](C#CC2CC2)(C(F)(F)F)c2cc(Cl)ccc2NC1=O |

| melting point | Structure (SMILES) |
| --- | --- |
| > 220 °C | O=C1NC(=O)c2cc(Nc3ccc(F)cc3)c(Nc3ccc(F)cc3)cc21 |
| 158 to 160 °C | O=C1C=c2cc3c(cc2CC1=O)=CCO3 |
| 130 to 131 °C | COc1cc(OC)cc(C(=O)N2CCc3cc(OCc4ccccc4)c(OC)cc3C2)c1 |
| 63 to 65 °C | O=C1CCC(c2cc(F)c(Br)cc2F)C1 (configuration not stated) |
| 137 to 141 °C | Cc1ccc(Nc2c(C)cc(Cl)cc2Cl)c(CC(=O)O)c1 |
| 243 to 246 °C | CS(=O)(=O)Nc1cc2occc(=O)c2cc1Oc1ccccc1C(=O)O |
| 256 to 260 °C | O=C1Nc2ccc(F)cc2C1c1ncnc2nn(C3CCCC3)cc12 (configuration not stated) |
| 169 to 171 °C | Nc1c[nH]c(=S)n1C1CCc2ccccc2C1 (configuration not stated) |
| 210 to 218 °C | Cc1ccc(C2OCCn3ccc(=O)c(O)c32)cc1 (configuration not stated) |
| 174 to 176 °C | O=S1(=O)c2ccccc2Oc2cc(F)ccc21 |
| 302 to 304 °C | COc1ccc(C2=Nc3ccc(N4CCOCC4)cc3C(=O)C2)cc1 |
| 131 to 132 °C | CC1(C)CC(=O)C(C(=O)Nc2cc(F)cc(F)c2)C(=O)C1F (configuration not stated) |
| 204 to 206 °C | CC1c2cccn2-c2ccc(Br)cc2N1S(=O)(=O)c1ccc(O)cc1 (configuration not stated) |
| > 300 °C | OCc1cnc2c(Cl)cccc2c1O |
| 262 to 263 °C | O=c1[nH]c(-c2ccc(Cl)c(Cl)c2)co1 |
| 147 to 148 °C | Cc1cc2ccc(Cl)c(C)c2nc1-n1cncn1 |
